Assay [1] concerns the target T1, maltase (rat small intestinal).
T1 construct: gene Mgam; native; crude supernatant of commercial rat intestinal acetone powder (Sigma-Aldrich), not purified; maltose as substrate
Put plainly: liberated glucose by glucose oxidase method. The class given is biochemical. To be noted: crude rat intestinal acetone powder supernatant; maltose substrate; 0.1 M phosphate pH 7.0. An excerpt: liberated glucose by glucose oxidase method on maltase (rat small intestinal)

Assay [2] has as its target T2, rat small intestinal α-glucosidase.
T2 construct: gene Mgam; native; crude supernatant of commercial rat intestinal acetone powder (Sigma-Aldrich), not purified; pNPG as substrate
Put plainly: pNPG hydrolysis, absorbance […] nm. The class given is biochemical. As to conditions: crude rat intestinal acetone powder supernatant; pNPG substrate; 0.1 M phosphate pH 6.9, 37 °C.

On to `COc1ccc([C@@H]2CC(=O)c3c(O)cc(O[C@@H]4O[C@H](CO[C@@H]5O[C@@H](C)[C@H](O)[C@@H](O)[C@H]5O)[C@@H](O)[C@H](O)[C@H]4O)cc3O2)cc1O` [hesperidin], for which the HP is recorded as 1.04 ± 0.03 mg/mL in assay [1] and 0.99 ± 0.14 mg/mL in assay [2].
